In paper PMC9944867, “Mechanistic in vitro studies indicate that the clinical drug–drug interactions between protease inhibitors and rosuvastatin are driven by inhibition of intestinal BCRP and hepatic OATP1B1 with minimal contribution from OATP1B3, NTCP and OAT3” (Pharmacology Research & Perspectives, 2023):
“And” between values parts separate entries of the source, which are not always exact repeats. Equal entries are not always repeated. Where two headings read alike, the source gives them in different places.

Columns and labels:
[1] = cited from earlier work; for Cmax: read-out: [Cmax] mean steady-state maximum plasma concentration, total drug; for fu fraction unbound: in plasma, ref drug label accessed via Drugs@FDA database
human OATP1B3 (SLCO1B3) = target: T1, human OATP1B3 (SLCO1B3) (Homo sapiens, UniProt Q9NPD5); experiment: OATP1B3 inhibition in transporter-expressing HEK293 cells, [3H]-estradiol 17β-D-glucuronide uptake (IC50 determination); settings: for IC50: OATP1B3-mediated transport of [3H]-estradiol 17β-D-glucuronide (0.02 μM), HEK293
T1 sequence (Q9NPD5 1-702): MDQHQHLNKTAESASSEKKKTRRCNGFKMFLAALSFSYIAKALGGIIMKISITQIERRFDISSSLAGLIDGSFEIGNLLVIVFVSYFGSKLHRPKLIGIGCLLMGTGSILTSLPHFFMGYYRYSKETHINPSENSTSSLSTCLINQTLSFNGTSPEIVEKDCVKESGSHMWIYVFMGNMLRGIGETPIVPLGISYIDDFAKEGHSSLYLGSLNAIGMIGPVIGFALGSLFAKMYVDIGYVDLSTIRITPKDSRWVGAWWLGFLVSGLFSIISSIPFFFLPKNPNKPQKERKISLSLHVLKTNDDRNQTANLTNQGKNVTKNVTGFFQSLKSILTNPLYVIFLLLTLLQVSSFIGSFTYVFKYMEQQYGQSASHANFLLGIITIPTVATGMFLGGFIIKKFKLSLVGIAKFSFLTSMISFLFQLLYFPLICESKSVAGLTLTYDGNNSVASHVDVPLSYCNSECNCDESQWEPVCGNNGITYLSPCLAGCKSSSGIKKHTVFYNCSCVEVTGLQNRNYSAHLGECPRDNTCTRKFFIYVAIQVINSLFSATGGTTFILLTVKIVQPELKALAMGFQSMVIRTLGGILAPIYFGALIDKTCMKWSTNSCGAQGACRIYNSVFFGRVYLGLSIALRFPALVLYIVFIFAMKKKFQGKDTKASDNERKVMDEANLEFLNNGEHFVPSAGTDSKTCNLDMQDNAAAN
Description: (§1) OATP1B1, OATP1B3, NTCP and vector control cell lines were cultured and subsequent transporter assays conducted as described above using the same transporter‐specific probe substrates and incubation times. For OATP1B1, the probe substrate was [^3H]‐estradiol 17β‐D‐glucuronide (0.02 μM) incubated for 2 min, with rifamycin SV (100 μM) as positive control inhibitor. For IC50 determinations, the only difference to the method performed above was that the 15‐min pre‐incubation step contained a range of six concentrations of protease inhibitor drug, and subsequent incubations were conducted with the same six concentration levels of drug rather than with a single concentration.

OATP1B3 = tested on: OATP1B3; parameters: method as in Vildhede et al.[33]; settings: ref Vildhede et al.[33], cited from earlier work
human OATP1B1 (SLCO1B1) = target: T2, human OATP1B1 (SLCO1B1) (Homo sapiens, UniProt Q9Y6L6); experiment: OATP1B1 inhibition in transporter-expressing HEK293 cells, [3H]-estradiol 17β-D-glucuronide uptake (IC50 determination); settings: OATP1B1-mediated transport of [3H]-estradiol 17β-D-glucuronide (0.02 μM), HEK293
T2 sequence (Q9Y6L6 1-691): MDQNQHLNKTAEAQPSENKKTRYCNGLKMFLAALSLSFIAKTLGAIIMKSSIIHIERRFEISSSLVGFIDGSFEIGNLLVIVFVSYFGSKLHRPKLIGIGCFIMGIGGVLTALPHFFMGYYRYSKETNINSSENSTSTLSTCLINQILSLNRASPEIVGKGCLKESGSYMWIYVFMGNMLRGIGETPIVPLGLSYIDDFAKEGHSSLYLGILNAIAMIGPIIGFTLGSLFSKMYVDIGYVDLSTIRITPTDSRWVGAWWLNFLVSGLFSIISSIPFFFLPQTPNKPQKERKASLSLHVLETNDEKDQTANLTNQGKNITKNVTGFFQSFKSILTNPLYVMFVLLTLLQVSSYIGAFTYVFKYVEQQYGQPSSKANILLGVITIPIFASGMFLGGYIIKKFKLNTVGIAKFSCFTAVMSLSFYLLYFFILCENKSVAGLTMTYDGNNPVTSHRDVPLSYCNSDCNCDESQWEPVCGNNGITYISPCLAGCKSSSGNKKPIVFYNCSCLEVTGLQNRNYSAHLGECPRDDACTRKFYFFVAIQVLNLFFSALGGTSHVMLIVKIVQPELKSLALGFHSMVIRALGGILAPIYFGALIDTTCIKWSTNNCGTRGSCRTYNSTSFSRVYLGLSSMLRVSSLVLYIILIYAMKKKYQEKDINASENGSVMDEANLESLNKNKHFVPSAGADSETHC
Description: as §1

human NTCP (SLC10A1) = target: T3, human NTCP (SLC10A1) (Homo sapiens, UniProt Q14973); experiment: NTCP single concentration inhibition screen in HEK293 cells; assay type: cell-based; settings: ≥10x [Iin max u]: atazanavir 50 μM, darunavir 15 μM, lopinavir 5 μM, ritonavir 0.3 μM; [3H]-taurocholic acid 1 μM
T3 construct: host or cells: HEK293 TransportoCells
T3 sequence (Q14973 1-349): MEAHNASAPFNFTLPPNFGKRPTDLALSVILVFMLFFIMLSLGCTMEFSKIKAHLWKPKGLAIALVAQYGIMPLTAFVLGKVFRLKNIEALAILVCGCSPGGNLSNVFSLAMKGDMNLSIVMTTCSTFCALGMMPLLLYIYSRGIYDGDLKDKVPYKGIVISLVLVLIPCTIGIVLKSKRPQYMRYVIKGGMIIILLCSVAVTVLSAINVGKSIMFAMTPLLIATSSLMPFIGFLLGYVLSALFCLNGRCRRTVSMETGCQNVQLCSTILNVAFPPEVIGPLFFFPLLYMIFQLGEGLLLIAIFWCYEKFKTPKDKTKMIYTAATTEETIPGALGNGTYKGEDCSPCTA

[2] = IC50, determined values from different occasions (OATP1B3), single occasion
[3] = IC50 mean (OATP1B3), mean (±SD) of three occasions
[4] = IC50, determined values from different occasions (OATP1B1), single occasion
[5] = IC50 mean (OATP1B1), mean (±SD) of three occasions

Row | Mean OATP1B3 IC50 (Ki), fold lower than previously published (human OATP1B3 (SLCO1B3); against value with atorvastatin as probe substrate [33]) | SMILES | Cmax ([1]; clinical dose of Table 5, ref Elsby et al.[1]) | fu fraction unbound [1] | IC50 (human OATP1B3 (SLCO1B3); [2]) | IC50 (human OATP1B3 (SLCO1B3); [3]) | Published IC50/Ki (OATP1B3) (OATP1B3; probe substrate atorvastatin) | IC50 (human OATP1B1 (SLCO1B1); [4]) | IC50 (human OATP1B1 (SLCO1B1); [5]) | Inhibition of NTCP-mediated probe substrate transport, single concentration screen (human NTCP (SLC10A1)) | Cmax ([1]; 400 mg, ref Elsby et al.[13]) | Inhibition of OATP1B3, published (OATP1B3; tested up to 10 μM)
1 | 3.9 fold | COC(=O)N[C@H](C(=O)N[C@@H](Cc1ccccc1)[C@@H](O)CN(Cc1ccc(-c2ccccn2)cc1)NC(=O)[C@@H](NC(=O)OC)C(C)(C)C)C(C)(C)C [atazanavir] | 8.68 µM | 0.14 | 1.75 µM and 2.41 µM and 1.43 µM | 1.86 µM | 7.3 (atorvastatin) μM | 0.583 µM and 0.69 µM | 0.734 µM | produced inhibition |  | 
2 |  | Cc1cccc(C)c1OCC(=O)N[C@@H](Cc1ccccc1)[C@@H](O)C[C@H](Cc1ccccc1)NC(=O)[C@H](C(C)C)N1CCCNC1=O [lopinavir] |  | 0.02 | 5.14 µM and 5.04 µM and 4.95 µM | 5.04 ± 0.095 µM |  | 0.291 µM and 0.207 µM and 0.162 µM | 0.22 µM | produced inhibition | 14.6 µM | no inhibition
